Data as given in patent US12516038B2, “Inhibitors of antigen presentation by HLA-DR” (Janssen Pharmaceutica NV, priority 2020, dated 2026).

Key:
[1] = molecular target: HLA-DRB1*0401 (Homo sapiens (Human), UniProt P01903+P01911, A100K/A169T/DEL228-266/F76Y/I96L/K127E/L162R/M171V/N62H/P40V/Q125Y/R42H/S133A/S149N/S66Y/V115G/V209L/W38E); experiment: HLA-DR4 HTRF assay; assay type: binding; settings: inhibition of loading of Alexa Fluor 647-labeled Cit-CII peptide onto HLA-DR4 (CLIP cleaved)
Method in brief: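 HLA-DRB1*04:01 construct (α/β fused to human Fc, CLIP pre-cleaved by HRV3C overnight at 4° C) at 3 nM was preincubated 45 min with compound and 1 nM anti-Fc-Tb donor, then 40 nM Alexa647-Cit-CII1236-1249 peptide added. After 90 min at 37° C, the 665/620 nm HTRF ratio gave % inhibition; IC50 by nonlinear regression.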

[2] = tested on: HLA-DR4 restricted mouse T cell hybridoma line (DR4.CII.36.8) with HLA-DRB1*04:01-expressing Boleth cells; experiment: HLA-DR4-restricted peptide-specific T cell-based assay (hybridoma assay); settings: Mus musculus, T-cell, 6 h, inhibition of IL-2 production, CII259-273 peptide presented by Boleth cells
Method in brief: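 Boleth cells (HLA-DRB1*04:01 B cell line) pre-incubated with compound 1 h at 37° C. in DMEM/1% FCS, then DR4.CII.36.8 mouse T cell hybridoma (CII259-273-specific) added for 6 h with CII259-273 peptide. Supernatant mouse IL-2 by AlphaLISA; IC50 by 4-PL fit of 8-point duplicate titrations.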

[3] = tested on: human peripheral blood CD4+ helper T cells; experiment: Pan-CD4+ T cell activation (off-target assay); assay type: cell-based; settings: Homo sapiens, T-cell, 24 h, anti-CD3/anti-CD28 stimulation, IL-2 production by ELISA
Method in brief: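 Human peripheral blood CD4+ T cells, with no APCs present, were stimulated with plate-bound anti-CD3 (1 μg/mL coating) plus soluble anti-CD28 (1 μg/mL) in the presence of compound or vehicle for 24 h. IL-2 in the supernatant was quantified by ELISA.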

| SMILES | IC50 [1] [nM] | IC50 [2] [nM] | IC50 [3] [nM] |
| --- | --- | --- | --- |
| NC(=O)c1ccc([C@@H](Oc2ccc3c(c2)O[C@@H](c2ccccc2)CC3=O)c2ccncc2)cc1 (single isomer, unassigned) [Example 43a, 4-((*R)—(((*R)-4-oxo-2-phenylchroman-7-yl)oxy)(pyridin-4-yl)methyl)benzamide] | 3600 | 740 | 4500 |
| NC(=O)c1ccc([C@@H](Oc2ccc3c(c2)OCC(c2ccccc2)C3=O)c2ccncc2)cc1 (stereo in doubt) [Example 47, 4-((1*R)-((4-Oxo-3-phenylchroman-7-yl)oxy)(pyridin-4-yl)methyl)benzamide] | 6500 | 600 | 9900 |
| Cc1c(O[C@@H](c2ccncc2)c2ccc(C(N)=O)cc2OCc2ccccc2)ccc2c1OCCC2=O (single isomer, unassigned) [Example 86b, (*S)-3-(benzyloxy)-4-(((8-methyl-4-oxochroman-7-yl)oxy)(pyridin-4-yl)methyl)benzamide] | 1000 | 1700 | 1400 |
| Cc1c(O[C@H](c2ccc(C(N)=O)cc2)c2cccc(C#N)c2)ccc2c1OCCC2=O (single isomer, unassigned) [Example 60a, (*R)-4-((3-cyanophenyl)((8-methyl-4-oxochroman-7-yl)oxy)methyl)benzamide] | 1800 | 740 | 4700 |
| CCc1cc2c(cc1O[C@H](c1ccncc1)c1ccc(C(N)=O)cc1)OCCC2=O (single isomer, unassigned) [Example 74b, (*S)-4-(((6-ethyl-4-oxochroman-7-yl)oxy)(pyridin-4-yl)methyl)benzamide] | 920 | 1900 | 15000 |
| NC(=O)c1ccc([C@H](Oc2ccc3c(c2)OCCC3=O)c2ccnc3ccccc23)cc1 (single isomer, unassigned) [Example 22b, (*S)-4-(((4-oxochroman-7-yl)oxy)(quinolin-4-yl)methyl)benzamide] | 1200 | 2200 | 15000 |
| O=C1CCOc2cc(O[C@H](c3ccncc3)c3ccccc3F)ccc21 (single isomer, unassigned) [Example 1a, (*R)-7-((2-Fluorophenyl)(pyridin-4-yl)methoxy)chroman-4-one] | 1000 | 3400 | > 15000 |
| Cc1c(O[C@@H](c2ccc(C(N)=O)cc2)c2ccc(C(=O)O)cc2)ccc2c1OCCC2=O (single isomer, unassigned) [Example 71b, (*S)-4-((4-carbamoylphenyl)((8-methyl-4-oxochroman-7-yl)oxy)methyl)benzoic acid] | 930 | 200 | > 15000 |
| Cc1cc2c(c(C)c1O[C@@H](c1ccncc1)c1ccc(C#N)cc1)OCCC2=O (single isomer, unassigned) [Example 88a, (*R)-4-(((6,8-dimethyl-4-oxochroman-7-yl)oxy)(pyridin-4-yl)methyl)benzonitrile] | 400 | 2200 | > 15000 |
| Cc1c(O[C@H](c2ccncc2)c2ccc(C(N)=O)cc2)c(F)cc2c1OCCC2=O (single isomer, unassigned) [Example 58b, (*S)-4-(((6-fluoro-8-methyl-4-oxochroman-7-yl)oxy)(pyridin-4-yl)methyl)benzamide] | 730 | 2600 | 9900 |
| CCc1cc2c(cc1O[C@@H](c1ccncc1)c1ccc(C(N)=O)cc1)OCCC2=O (single isomer, unassigned) [Example 74a, (*R)-4-(((6-ethyl-4-oxochroman-7-yl)oxy)(pyridin-4-yl)methyl)benzamide] | 550 | 120 | 2200 |
| N#Cc1ccc([C@@H](Oc2ccc3c(c2)OCCC3=O)c2ccncc2)c2ccccc12 (single isomer, unassigned) [Example 37b, (*S)-4-(((4-oxochroman-7-yl)oxy)(pyridin-4-yl)methyl)-1-naphthonitrile] | 24000 | 5100 | 9900 |
| CC(C)c1c(O[C@@H](c2ccncc2)c2ccc(C(N)=O)cc2)ccc2c1OCCC2=O (single isomer, unassigned) [Example 75a, (*R)-4-(((8-isopropyl-4-oxochroman-7-yl)oxy)(pyridin-4-yl)methyl)benzamide] | 600 | 62 | 4700 |
| COc1ccc([C@@H](Oc2ccc3c(c2)OCCC3=O)c2ccncc2)cc1 (single isomer, unassigned) [Example 12a, (*R)-7-((4-Methoxyphenyl)(pyridin-4-yl)methoxy)chroman-4-one] | 2000 | 2600 | 9900 |
| NC(=O)c1ccc([C@@H](Oc2ccc3c(c2)OCCC3=O)c2ccnc(-c3ccccc3)c2)cc1 (single isomer, unassigned) [Example 26a, (*R)-4-(((4-oxochroman-7-yl)oxy)(2-phenylpyridin-4-yl)methyl)benzamide] | 64000 | 1100 | > 15000 |
| Cc1cc2c(c(C)c1O[C@H](c1ccncc1)c1ccc(C(N)=O)cc1)OCCC2=O (single isomer, unassigned) [Example 89b, (*S)-4-(((6,8-dimethyl-4-oxochroman-7-yl)oxy)(pyridin-4-yl)methyl)benzamide] | 470 | 1200 | 4700 |
| CNC(=O)c1ccc([C@H](Oc2ccc3c(c2)OCCC3=O)c2ccncc2)cc1 (single isomer, unassigned) [Example 34b, (*S)—N-methyl-4-(((4-oxochroman-7-yl)oxy)(pyridin-4-yl)methyl)benzamide] | 690 | > 15000 | > 15000 |
| Cc1c(O[C@@H](c2ccncc2)c2ccc(C(N)=O)cc2)c(F)cc2c1OCCC2=O (single isomer, unassigned) [Example 58a, (*R)-4-(((6-fluoro-8-methyl-4-oxochroman-7-yl)oxy)(pyridin-4-yl)methyl)benzamide] | 330 | 180 | 5300 |
| CC[C@@H]1CC(=O)c2ccc(O[C@@H](c3ccncc3)c3ccc(C(N)=O)cc3)cc2O1 (single isomer, unassigned) [Example 40a, 4-((*R)—(((*R)-2-ethyl-4-oxochroman-7-yl)oxy)(pyridin-4-yl)methyl)benzamide] | 1500 | 760 | 15000 |
| CC[C@H]1CC(=O)c2ccc(OCc3ccnc(C)c3)cc2O1 (single isomer, unassigned) [Example 118b, (*S)-2-ethyl-7-((2-methylpyridin-4-yl)methoxy)chroman-4-one] | 990 | 12000 | > 15000 |
| N#Cc1c(O[C@H](c2ccncc2)c2ccc(C(N)=O)cc2)ccc2c1OCCC2=O (single isomer, unassigned) [Example 78b, (*S)-4-(((8-cyano-4-oxochroman-7-yl)oxy)(pyridin-4-yl)methyl)benzamide] | 450 | 470 | 15000 |
| O=C1CCOc2cc(O[C@@H](c3ccncc3)c3ccccc3F)ccc21 (single isomer, unassigned) [Example 1b, (*S)-7-((2-Fluorophenyl)(pyridin-4-yl)methoxy)chroman-4-one] | 1200 | 3100 | 3100 |
